Some results are limits rather than exact numbers.

For assay [1], the system named is A-375. The assay is described as follows: Antiproliferative activity against human A375 cells at 8 uM after 72 hrs by CCK-8 assay relative to control. The class given is functional. The conditions noted are these: A-375, 72 h. For orientation: Tetrazolium dyes change colour on reduction, which living cells bring about.
Assay [2] concerns MGC-803. The assay is described as follows: Antiproliferative activity against human MGC803 cells at 2 uM after 72 hrs by CCK-8 assay relative to control. The conditions noted are these: MGC-803, 72 h. The class given is functional.
The subject of assay [3] is A-375. Kind of assay: Antiproliferative activity against human A375 cells at 2 uM after 72 hrs by CCK-8 assay relative to control. The class given is functional. The conditions noted are these: A-375, 72 h.
Assay [4] deals with HeLa. Kind of assay: Antiproliferative activity against human HeLa cells at 8 uM after 72 hrs by CCK-8 assay relative to control. It counts as functional.
The test system of assay [5] is MGC-803. The assay is described as follows: Antiproliferative activity against human MGC803 cells at 8 uM after 72 hrs by CCK-8 assay relative to control. The class given is functional. Conditions: MGC-803, 72 h.
Assay [6] deals with HeLa. The assay is described as follows: Antiproliferative activity against human HeLa cells at 2 uM after 72 hrs by CCK-8 assay relative to control. It counts as functional.
Assay [7] has as its system NCI-H1299. Kind of assay: Antiproliferative activity against human NCI-H1299 cells after 72 hrs by CCK-8 assay. It counts as functional, cell-based. Conditions: NCI-H1299, 72 h.
In assay [8] the test system is MGC-803. The assay is described as follows: Antiproliferative activity against human MGC803 cells after 72 hrs by CCK-8 assay. The class given is functional, cell-based. Conditions: MGC-803, 72 h.
Assay [9] relates to SMMC-7721. Kind of assay: Antiproliferative activity against human SMMC7721 cells after 72 hrs by CCK-8 assay. It counts as functional, cell-based. The conditions noted are these: SMMC-7721, 72 h.
For assay [10], the system named is HCT-116. Kind of assay: Antiproliferative activity against human HCT116 cells after 72 hrs by CCK-8 assay. It counts as functional, cell-based. The conditions noted are these: HCT-116, 72 h.
The subject of assay [11] is A-375. The assay is described as follows: Antiproliferative activity against human A375 cells after 72 hrs by CCK-8 assay. The class given is functional, cell-based. The conditions noted are these: A-375, 72 h.
Assay [12] relates to HeLa. Kind of assay: Antiproliferative activity against human HeLa cells after 72 hrs by CCK-8 assay. It counts as functional, cell-based.

As to `CN(C(=S)SCc1ccc(C(=O)Nc2ccccc2N)cc1)c1cccnc1`, the inhibition at 8 µM in [1] was found to be 87.7%; in [4], 70.5%; in assay [5], 82.5%. In addition, the results for the inhibition at 2 µM in assay [2], in assay [3] and in [6] were 46.1%, 26.5% and 16%, respectively.
For the compound `Cc1ccc(N2CCN(C(=S)SCc3ccc(C(=O)Nc4ccccc4N)cc3)CC2)cc1`, the inhibition at 8 µM in assay [1] came out at 26.4%; in assay [4] it was 24%; in [5] it was 19.8%. The inhibition at 2 µM turned out to be 33.4% in [2], 25.8% in [3] and 25.3% in [6].
As to `CC1CCN(C(=S)SCc2ccc(C(=O)Nc3ccccc3N)cc2)CC1`, the inhibition at 8 µM in assay [1] amounted to 87.4%; in [4] it was 72.5%; in assay [5], 81.9%. Besides, the inhibition at 2 µM came out at 28.1% in assay [2], 32.7% in assay [3] and 46.8% in [6].
On to `Nc1ccccc1NC(=O)c1ccc(CSC(=S)N2CCN(c3ccc(F)cc3)CC2)cc1`, for which the inhibition at 8 µM was 76.3% in assay [1], 64.5% in [4] and 48.7% in assay [5]. For the same compound, the IC50 in [7] is 0.98 µM; in [8], 17.2 µM; in [9] it was above 32 µM; in assay [10], 2730 nM; in assay [11], 9.4 µM. Moreover, the values for the inhibition at 2 µM in assay [2], in [3] and in [6] were 18.8%, 20.9% and 60.8%, respectively.
As to `CN1CCN(C(=S)SCc2ccc(C(=O)Nc3ccccc3N)cc2)CC1`, the inhibition at 8 µM in assay [1] was 91.6%; in assay [4], 75.7%; in assay [5] it was 84.4%. Besides, the results for the inhibition at 2 µM in [2], in assay [3] and in assay [6] were 29.6%, 36.6% and 52.6%, respectively.
For `Nc1ccccc1NC(=O)c1ccc(CSC(=S)N2CCN(c3ccccc3F)CC2)cc1`, the inhibition at 8 µM was found to be 79.5% in assay [1], 59.2% in assay [4] and 86.4% in assay [5]. Moreover, the inhibition at 2 µM in assay [2] came out at 33.7%; in [3] it was 18.7%; in [6], 17.5%.
In the case of `CN(Cc1ccncc1)C(=S)SCc1ccc(C(=O)Nc2ccccc2N)cc1`, the inhibition at 8 µM is 86.1% in assay [1], 72.7% in assay [4] and 83.2% in assay [5]. The inhibition at 2 µM is 38.1% in assay [2], 31.4% in [3] and 29.5% in [6].
On to `CC(=O)Nc1ccc(C(=O)Nc2ccccc2N)cc1` [TACEDINALINE], for which the inhibition at 8 µM amounted to 33.5% in assay [1], 24.3% in assay [4] and 22.4% in assay [5]. Moreover, the IC50 in assay [7] is 33.8 µM; in assay [12], 18 µM; in [11] it was 11.3 µM. Further, the inhibition at 2 µM in assay [2] is 9.5%; in assay [3] it was 13.4%; in [6] it was 7.3%.
As to `Nc1ccccc1NC(=O)c1ccc(CSC(=S)N2CCN(C(c3ccccc3)c3ccccc3)CC2)cc1`, the inhibition at 8 µM in assay [1] turned out to be 8.4%; in assay [4], 13.8%; in [5] it was 9.9%. The inhibition at 2 µM came out at 9.8% in [2], 8.7% in assay [3] and 8% in [6].
As for `Nc1ccccc1NC(=O)c1ccc(CSC(=S)N2CCN(Cc3ccccn3)CC2)cc1`, the inhibition at 8 µM is 82.4% in assay [1], 61.4% in [4] and 65.2% in assay [5]. The inhibition at 2 µM in [2] is 23.4%; in assay [3] it was 20.7%; in assay [6], 14.2%.
For `Nc1ccccc1NC(=O)c1ccc(CSC(=S)N2CCN(Cc3cccnc3)CC2)cc1`, the inhibition at 8 µM came out at 89.2% in [1], 78% in assay [4] and 64.6% in assay [5]. Besides, the figures for the inhibition at 2 µM in assay [2], in assay [3] and in assay [6] were 37.7%, 31.5% and 69.7%, respectively.
`Nc1ccccc1NC(=O)c1ccc(CSC(=S)N2CCN(c3ncccn3)CC2)cc1`: the inhibition at 8 µM in assay [1] turned out to be 67.9%; in [4], 73.9%; in assay [5], 64.8%. Besides, the inhibition at 2 µM in assay [2] came out at 28.4%; in assay [3] it was 24%; in assay [6], 52.2%.
As for `Nc1ccccc1NC(=O)c1ccc(CSC(=S)N2CCN(Cc3ccncc3)CC2)cc1`, the inhibition at 8 µM in assay [1] was 89.5%; in [4], 72.9%; in assay [5], 79.3%. Also, the inhibition at 2 µM was determined as 18.4% in assay [2], 33.1% in assay [3] and 59.5% in assay [6].
Regarding `Nc1ccccc1NC(=O)c1ccc(CSC(=S)N2CCc3cc([N+](=O)[O-])ccc32)cc1`, the figures for the inhibition at 8 µM in assay [1], in assay [4] and in [5] were 29.5%, 43.6% and 33.2%, respectively. Besides, the inhibition at 2 µM in [2] was 26.8%; in assay [3], 16.9%; in assay [6] it was 32.6%.
Consider `COc1ccc(N2CCN(C(=S)SCc3ccc(C(=O)Nc4ccccc4N)cc3)CC2)cc1`, for which the figures for the inhibition at 8 µM in [1], in assay [4] and in [5] were 35.9%, 52.3% and 22.9%, respectively. Besides, the inhibition at 2 µM in assay [2] is 25.3%; in assay [3] it was 28.1%; in assay [6] it was 39.4%.
For the compound `Nc1ccccc1NC(=O)c1ccc(CSC(=S)N2CCCC2)cc1`, the inhibition at 8 µM in [1] was found to be 89.5%; in [4], 77.8%; in [5], 83.4%. Besides, the inhibition at 2 µM in [2] stood at 27%; in assay [3], 30.2%; in assay [6], 51.3%.
With `Nc1ccccc1NC(=O)c1ccc(CSC(=S)N2CCN(Cc3ccccc3)CC2)cc1`, the inhibition at 8 µM is 29.3% in [1], 31.3% in assay [4] and 19.7% in assay [5]. For the same compound, the inhibition at 2 µM in assay [2] was determined as 18.1%; in assay [3] it was 10.6%; in assay [6], 20.6%.
For `Nc1ccccc1NC(=O)c1ccc(CSC(=S)N2CCCc3ccccc32)cc1`, the inhibition at 8 µM worked out at 81.5% in assay [1], 35.7% in assay [4] and 87.5% in [5]. Also, the inhibition at 2 µM was 38.5% in assay [2], 26.5% in assay [3] and 26.1% in assay [6].
With `Nc1ccccc1NC(=O)c1ccc(CSC(=S)N2CCN(CCc3ccccc3)CC2)cc1`, the inhibition at 8 µM in [1] is 76.6%; in assay [4] it was 37%; in assay [5], 53.8%. Besides, the inhibition at 2 µM in [2] was 24.8%; in [3] it was 26.1%; in [6], 21.9%.
For the compound `N#Cc1ccc(N2CCN(C(=S)SCc3ccc(C(=O)Nc4ccccc4N)cc3)CC2)cc1`, the inhibition at 8 µM is 62.9% in assay [1], 70.6% in [4] and 37.6% in [5]. In addition, the inhibition at 2 µM was found to be 34.5% in assay [2], 41.4% in [3] and 71.6% in assay [6].
`Nc1ccccc1NC(=O)c1ccc(CSC(=S)N(Cc2ccccc2)Cc2ccccc2)cc1`: the inhibition at 8 µM was 32.5% in assay [1], 18.9% in [4] and 30.7% in assay [5]. The inhibition at 2 µM is 11% in [2], 10.9% in [3] and 1% in [6].
Turning to `Nc1ccccc1NC(=O)c1ccc(CSC(=S)N2CCc3ccc([N+](=O)[O-])cc32)cc1`, the inhibition at 8 µM was 42% in assay [1], 62.1% in [4] and 39.6% in [5]. The values for the inhibition at 2 µM in [2], in [3] and in assay [6] were 30.6%, 22.1% and 45.7%, respectively.
On to `Nc1ccccc1NC(=O)c1ccc(CSC(=S)N2CCN(c3ccc(Cl)cc3)CC2)cc1`, for which the inhibition at 8 µM was determined as 29% in assay [1], 44.8% in [4] and 17.2% in assay [5]. For the same compound, the figures for the inhibition at 2 µM in assay [2], in assay [3] and in assay [6] were 15%, 32.2% and 51.2%, respectively.
`Nc1ccccc1NC(=O)c1ccc(CSC(=S)N2CCN(C3CCCCC3)CC2)cc1`: the inhibition at 8 µM in [1] was found to be 89.9%; in assay [4], 76.1%; in [5] it was 75.3%. Further, the inhibition at 2 µM in assay [2] is 16.9%; in [3], 31.7%; in [6] it was 30.6%.
For `CN(Cc1cccnc1)C(=S)SCc1ccc(C(=O)Nc2ccccc2N)cc1`, the inhibition at 8 µM was 83.8% in [1], 68.7% in assay [4] and 85.5% in [5]. Further, the inhibition at 2 µM in assay [2] came out at 45.9%; in assay [3] it was 39.4%; in assay [6], 16.4%.
Take `Nc1ccccc1NC(=O)c1ccc(CSC(=S)N2CCN(c3cnccn3)CC2)cc1`: the inhibition at 8 µM in assay [1] is 85.8%; in assay [4], 76.9%; in assay [5] it was 80.5%. In addition, the inhibition at 2 µM came out at 27.1% in assay [2], 29.1% in [3] and 70.4% in assay [6].
With `Nc1ccccc1NC(=O)c1ccc(CSC(=S)N2CCN(c3cccnc3)CC2)cc1`, the inhibition at 8 µM is 88.8% in assay [1], 72.5% in assay [4] and 76.9% in assay [5]. Moreover, the inhibition at 2 µM in assay [2] was 27.6%; in assay [3], 40.5%; in assay [6] it was 66.2%.

Usually inhibition stands for the relative decrease from the control value, in per cent. A low value points to a weak effect. A word on the IC50: it is the concentration at which inhibition is half-maximal. High values mean lower potency, low ones higher potency.

These data come from ChEMBL document CHEMBL4251578, “Design, synthesis and biological evaluation of novel 2-aminobenzamides containing dithiocarbamate moiety as histone deacetylase inhibitors and potent antitumor agents” (Eur J Med Chem, 2018).
